Measurements: publication PMC8910920 (International Journal of Molecular Sciences, 2022)

Tests used:
[1] = molecular target: T1, hTRPV1 (Homo sapiens, UniProt Q8NER1); assay: hTRPV1 agonist assay (Ca2+ fluorimetry, CHO cells); format: cell-based; settings: 10 μM
T1 construct: host or cells: CHO
Description: These studies were subcontracted to Eurofins-CEREP or Eurofins-PANLABS. Briefly, agonists and antagonist assays were performed in cell cultures overexpressing the corresponding channel (CHO: TRPV1 and TRPA1; HEK293: TRPV3 and ASIC3). In vitro pharmacology, cellular channel functional assays: the compound was prepared in assay buffer to the final concentration, 10 μM. The compound wells, reference agonist and background vehicle controls were prepared in DMSO at 0.3%. The reference agonist for each Ion Channel assayed was prepared in a similar manner to serve as the assay control. […] The agonist assay was conducted on fluorimeter instruments where the test compound, vehicle controls, and reference agonist were added to the assay plate after a fluorescence baseline was established. […] For the antagonist assay, the compound was pre-incubated for five minutes at room temperature, and then challenged with the EC80 concentration of the reference agonist after establishment of a fluorescence baseline. […] Binding assay results are expressed as a percent of control specific binding. […] Aqueous solubility (μM) was determined by comparing the peak area of the principal peak in a calibration standard (200 μM) containing organic solvent (methanol/water, 60/40, v/v) with the peak area of the corresponding peak in a buffer sample. […] The amount of compound in organic phase was calculated by subtraction. […]

[2] = molecular target: T2, hCB2 (Homo sapiens, UniProt P34972); assay: Radioligand binding assay, CHO cells, hCB2
T2 construct: host or cells: CHO
T2 sequence (P34972 whole entry): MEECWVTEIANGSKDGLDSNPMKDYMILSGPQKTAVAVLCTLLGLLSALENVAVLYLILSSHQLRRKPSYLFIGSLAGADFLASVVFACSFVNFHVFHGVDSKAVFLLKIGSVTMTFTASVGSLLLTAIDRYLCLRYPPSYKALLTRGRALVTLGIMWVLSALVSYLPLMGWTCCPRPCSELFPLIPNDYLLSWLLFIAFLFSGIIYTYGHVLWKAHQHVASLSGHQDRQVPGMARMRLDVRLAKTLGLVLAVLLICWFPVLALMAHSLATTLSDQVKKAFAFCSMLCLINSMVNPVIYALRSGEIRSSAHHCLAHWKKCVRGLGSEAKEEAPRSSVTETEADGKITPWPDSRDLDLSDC
Description: To define whether β–lactam derivative RGM8-51 could bind to CGRPR, CB2 and M3 receptors, in vitro binding assays were performed, using CHO cell lines transfected with these receptors. The degree of binding was determined by using specific radioligands for each receptor (Table 2, footnote).
These studies were subcontracted to Eurofins-CEREP or Eurofins-PANLABS. Briefly, agonists and antagonist assays were performed in cell cultures overexpressing the corresponding channel (CHO: TRPV1 and TRPA1; HEK293: TRPV3 and ASIC3). In vitro pharmacology, cellular channel functional assays: the compound was prepared in assay buffer to the final concentration, 10 μM. […] The agonist assay was conducted on fluorimeter instruments where the test compound, vehicle controls, and reference agonist were added to the assay plate after a fluorescence baseline was established. […] For the antagonist assay, the compound was pre-incubated for five minutes at room temperature, and then challenged with the EC80 concentration of the reference agonist after establishment of a fluorescence baseline. […] Binding assay results are expressed as a percent of control specific binding. […] Aqueous solubility (μM) was determined by comparing the peak area of the principal peak in a calibration standard (200 μM) containing organic solvent (methanol/water, 60/40, v/v) with the peak area of the corresponding peak in a buffer sample. […]

T1 sequence (Q8NER1 whole entry): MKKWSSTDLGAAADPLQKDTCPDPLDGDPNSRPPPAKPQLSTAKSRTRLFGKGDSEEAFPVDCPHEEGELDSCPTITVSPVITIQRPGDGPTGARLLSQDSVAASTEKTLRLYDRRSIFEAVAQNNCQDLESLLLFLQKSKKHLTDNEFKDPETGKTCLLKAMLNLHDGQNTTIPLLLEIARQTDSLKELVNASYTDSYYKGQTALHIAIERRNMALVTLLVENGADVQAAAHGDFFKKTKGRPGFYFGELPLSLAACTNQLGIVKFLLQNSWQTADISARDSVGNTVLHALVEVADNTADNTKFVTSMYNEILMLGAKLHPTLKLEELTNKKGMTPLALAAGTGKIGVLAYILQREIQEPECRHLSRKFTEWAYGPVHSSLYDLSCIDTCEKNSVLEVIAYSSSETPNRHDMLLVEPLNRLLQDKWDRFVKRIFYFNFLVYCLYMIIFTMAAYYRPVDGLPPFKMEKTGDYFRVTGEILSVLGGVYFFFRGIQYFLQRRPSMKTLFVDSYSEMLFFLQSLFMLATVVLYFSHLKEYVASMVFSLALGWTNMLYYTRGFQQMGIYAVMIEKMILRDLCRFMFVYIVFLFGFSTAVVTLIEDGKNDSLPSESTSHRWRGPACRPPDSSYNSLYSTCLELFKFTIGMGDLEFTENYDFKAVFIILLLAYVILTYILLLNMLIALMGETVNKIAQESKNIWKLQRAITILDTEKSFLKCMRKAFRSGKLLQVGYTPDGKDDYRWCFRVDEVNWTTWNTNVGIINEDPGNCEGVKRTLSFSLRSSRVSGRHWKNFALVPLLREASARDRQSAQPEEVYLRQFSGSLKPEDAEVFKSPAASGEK

## C[C@@H]1C(=O)N(C[C@H](Cc2ccccc2)N(Cc2ccccc2)Cc2ccccc2)[C@]1(Cc1ccccc1)C(=O)OC(C)(C)C [RGM8-51, 4(S)-Benzyl-3S-methyl-4-(tert-butoxy)carbonyl-1-[(2′S-dibenzylamino-3′-phenyl)prop-1′-yl]-2-oxoazetidine]
[1]
  hTRPV1 ago. (%): 31.3 ± 3.6%
[2]; 10 μM, radioligand [3H]WIN 55212-2
  Binding hCB2 (%), inhibition of specific binding: did not show significant affinity
[2]; radioligand [3H]WIN 55212-2, read-out: Binding hCB2 (%), inhibition of specific binding
  inhibition at 10 µM: 7.3 ± 0.3%
